Laboratory results: patent US11597933B2, “Combination therapy of lymphoma” (The Trustees of Columbia University in the City of New York, priority 2017, dated 2023)
pIC50: −log10 of the molar value. Like-named read-outs stand apart in the source and are kept apart here. Each block holds one molecule with its values, some of them ahead of it.

Tests used:
Pfeiffer = assay: Cell viability assay, Pfeiffer; assay type: cell-based; conditions: for pIC50: Pfeiffer
From the text: (§1) OCI-LY1, SU-DHL-2, SU-DHL-6, Pfeiffer, Farage, Toledo, Riva, HBL-1, Jeko-1, Z-138, H9, and HH were obtained from ATCC. OCI-LY7, OCI-LY10, SU-DHL-10 and OCI-LY3 were obtained from DSMZ. PF382, and P12 were a gift from the laboratory of Adolfo Fernando. TLOM-1 and MT-1 were obtained from Kyoto University; and MT-2 was obtained from Memorial Sloan Kettering Cancer Center. All cell lines were authenticated and screened for mycoplasma using the ATCC/Promega STR Authentication Testing Kit and Lonza MycoAlert.
(§2) Synergy was assessed by excess over bliss (EOB). […] Criteria for analyzing interactions between biologically active agents. Advances in cancer research 1981; 35:269-335.
(§3) To understand the effects of EZH2 inhibition and HDAC inhibition in cell lines with or without EZH2 dysfunction and HAT mutations, a panel of 21 lymphoma cell lines were exposed to GSK126, an EZH2 inhibitor, and romidepsin, a pan-HDAC inhibitor, as single agents. Both B-cell and TCL were selected in order to establish a range of drug sensitivity and mutational status. EZH2 status and HAT mutational status were confirmed.

OCI-LY3 = assay: Cell viability assay, OCI-LY3; assay type: cell-based
From the text: as §1, §2, §3

PF-382 = assay: Cell viability assay, PF-382; assay type: cell-based
From the text: as §1, §2, §3

Toledo = assay: Cell viability assay, Toledo; assay type: cell-based
From the text: as §1, §2, §3

H9 = assay: Cell viability assay, H9; assay type: cell-based
From the text: as §1, §2, §3

HEK 293T cells = assay: H3K27 acetylation and methylation in HEK 293T cells; assay type: cell-based; conditions: single agent exposure in HEK 293T cells
Jeko-1 = assay: Cell viability assay, Jeko-1; assay type: cell-based
From the text: as §1, §2, §3

OCI-LY10 = assay: Cell viability assay, OCI-LY10; assay type: cell-based
From the text: as §1, §2, §3

[1] = mouse, in vivo
Procedure: (§4) F. Serum romidepsin pharmacokinetic parameters after single injection of GSK and romidepsin over 24 hours.

MT-2 = assay: Cell viability assay, MT-2; assay type: cell-based
From the text: as §1, §2, §3

Z-138 = assay: Cell viability assay, Z-138; assay type: cell-based
From the text: as §1, §2, §3

OCI-LY1 = assay: Cell viability assay, OCI-LY1; assay type: cell-based
From the text: as §1, §2, §3

Riva = assay: Cell viability assay, Riva; assay type: cell-based
From the text: as §1, §2, §3

SU-DHL-10 = assay: Cell viability assay, SU-DHL-10; assay type: cell-based
From the text: as §1, §2, §3

SU-DHL-2 = assay: Cell viability assay, SU-DHL-2; assay type: cell-based
From the text: as §1, §2, §3

Farage = assay: Cell viability assay, Farage; assay type: cell-based
From the text: as §1, §2, §3

HH = assay: Cell viability assay, HH; assay type: cell-based
From the text: as §1, §2, §3

MT-1 = assay: Cell viability assay, MT-1; assay type: cell-based
From the text: as §1, §2, §3

P12 = assay: Cell viability assay, P12; assay type: cell-based
From the text: as §1, §2, §3

SU-DHL-6 = assay: Cell viability assay, SU-DHL-6; assay type: cell-based
From the text: as §1, §2, §3

HBL-1 = assay: Cell viability assay, HBL-1; assay type: cell-based
From the text: as §1, §2, §3

TLOM-1 = assay: Cell viability assay, TLOM-1; assay type: cell-based
From the text: as §1, §2, §3

OCI-LY7 = assay: Cell viability assay, OCI-LY7; assay type: cell-based
From the text: as §1, §2, §3

RbAp 46/48 (RBBP4) = assay: Acetyl-lysine immunoprecipitation and mass spectrometry; assay type: cell-based; conditions: SU-DHL-10 cells, acetyl-lysine antibody IP, compared to control, FDR<1.0%
Procedure: Immunoprecipitation was performed using Thermo Scientific™ Pierce™ MS-Compatible Magnetic IP Kit (#84840). Protein was incubated with EZH2 or acetylated-lysine antibody. Antibody bound proteins were eluted and run into SDS PAGE. The excised gel lane pieces were reduced, alkylated, and digested in Trypsin Gold (Promega) digestion buffer (Thermo Fischer Scientific). Condensed evaporated water was collected by brief centrifugation using microcentrifuge (Eppendorf). The gel pieces and digestion reaction were mixed with 2.5% Trifluoretic Acids (TFA, Thermo Fischer Scientific). Peptides were extracted with 70% acetonitrile (ACN/5% TFA mixture) (Thermo Fischer Scientific). The extracts were pooled and dried to completion in SpeedVac.
The concentrated peptide mix was reconstituted in a solution of 2% ACN, 2% formic acid (FA) for MS analysis. Peptides were eluted from the column using a Dionex Ultimate 3000 Nano LC system. Using Thermo Fusion Tribrid mass spectrometer (Thermo Scientific), eluted peptides were electro sprayed. Mass spectrometer-scanning functions and HPLC gradients were controlled by the Xcalibur data system (Thermo Fischer).
Tandem mass spectra from raw files were searched against uniprot_human_170129.fasta data base using the Proteome Discoverer 2.1 (Thermo Fischer). The […] protein database was downloaded as FASTA-formatted sequences from Uniprot protein database (January 2017). […]

in vivo = conditions: mouse, serum, ip
Procedure: as §4

[2] = Pharmacokinetic analysis of serum and tumor samples; conditions: single exposure to GSK126 and romidepsin, over 24 hours
Procedure: as §4

[3] = tested on: R/R DLBCL or follicular lymphoma (FL); conditions: 800 mg BID, cited from earlier work
[4] = GC-DLBCL, EZH2 Wildtype, 144 hours, read-out: IC50 GSK126
[5] = Homo sapiens, 72 h, read-out: IC50 Romidespin
[6] = 72 h, read-out: IC50 Romidespin

SMILES: CCN(c1cc(C#CCN2CCOCC2)cc(C(=O)NCc2c(C)cc(C)[nH]c2=O)c1C)[C@H]1CC[C@H](N(C)CCOC)CC1 [EPZ011989]
sensitivity, cell viability curve (Pfeiffer; Pfeiffer (GC-DLBCL), single agent): potent sensitivity

pIC50 (OCI-LY3; OCI-LY3, ABC-DLBCL, EZH2 Wildtype, 144 hours, read-out: IC50 GSK126): 5.14
pIC50 (OCI-LY10; OCI-LY10, ABC-DLBCL, EZH2 Wildtype, 144 hours, read-out: IC50 GSK126): 5.19
Cmax [1]: 3.15 µM
serum AUC0-last [1]: 2828.57 ng·h/mL
Cmax ([1]; ip): 1657.5 ± 413.6 ng/mL
pIC50 (OCI-LY1; OCI-LY1, GC-DLBCL, EZH2 Y602N, Y646N, 144 hours, read-out: IC50 GSK126): 5.43
pIC50 (SU-DHL-10; SU-DHL-10, GC-DLBCL, EZH2 Y641F, Y646S, 144 hours, read-out: IC50 GSK126): 6.15
pIC50 (SU-DHL-2; SU-DHL-2, ABC-DLBCL, EZH2 Wildtype, 144 hours, read-out: IC50 GSK126): 5.36
pIC50 (SU-DHL-6; SU-DHL-6, GC-DLBCL, EZH2 Y602N, Y646N, 144 hours, read-out: IC50 GSK126): 5.51
pIC50 (OCI-LY7; OCI-LY7, GC-DLBCL, EZH2 Wildtype, 144 hours, read-out: IC50 GSK126): 5.37
SMILES: CC[C@H](C)n1cc(C)c2c(C(=O)NCc3c(C)cc(C)[nH]c3=O)cc(-c3ccc(N4CCNCC4)nc3)cc21 [GSK126]
pIC50 (PF-382; PF-382, T-ALL, EZH2 Wildtype, 144 hours, read-out: IC50 GSK126): 5.25
pIC50 (Toledo; [4]): 5.22
pIC50 (H9; H9, CTCL, EZH2 Wildtype, 144 hours, read-out: IC50 GSK126): 5.21
status of acetylation or methylation of H3K27 (HEK 293T cells): did not significantly change
pIC50 (Jeko-1; Jeko-1, Mantle Cell, EZH2 Overexpression, 144 hours, read-out: IC50 GSK126): 5.00
pIC50 (MT-2; MT-2, ATLL, EZH2 Overexpression, 144 hours, read-out: IC50 GSK126): 5.05
pIC50 (Z-138; Z-138, Mantle Cell, EZH2 Overexpression, 144 hours, read-out: IC50 GSK126): 5.15
pIC50 (Riva; Riva, ABC-DLBCL, EZH2 Wildtype, 144 hours, read-out: IC50 GSK126): 5.12
pIC50 (Farage; [4]): 5.00
pIC50 (HH; CTCL, EZH2 Wildtype, 144 hours, read-out: IC50 GSK126): 5.36
pIC50 (MT-1; MT-1, ATLL, EZH2 Overexpression, 144 hours, read-out: IC50 GSK126): 5.36
pIC50 (P12; P12, T-ALL, EZH2 Wildtype, 144 hours, read-out: IC50 GSK126): 5.22
pIC50 (Pfeiffer; GC-DLBCL, EZH2 A677G, 144 hours, read-out: IC50 GSK126): 7.00
pIC50 (HBL-1; HBL-1, ABC-DLBCL, EZH2 Wildtype, 144 hours, read-out: IC50 GSK126): 5.38
pIC50 (TLOM-1; TLOM-1, ATLL, EZH2 Overexpression, 144 hours, read-out: IC50 GSK126): 5.82

SMILES: C/C=C1\NC(=O)[C@H]2CSSCC/C=C/[C@H](CC(=O)N[C@H](C(C)C)C(=O)N2)OC(=O)[C@H](C(C)C)NC1=O [romidepsin]
pIC50 (OCI-LY3; Homo sapiens, OCI-Ly3, 72 h, read-out: IC50 Romidespin): 8.77
pIC50 (PF-382; Homo sapiens, PF-382, 72 h, read-out: IC50 Romidespin): 8.46
pIC50 (Toledo; [5]): 9.00
pIC50 (H9; Homo sapiens, H9, 72 h, read-out: IC50 Romidespin): 8.89
pIC50 (Jeko-1; Homo sapiens, JeKo-1, 72 h, read-out: IC50 Romidespin): 8.96
pIC50 (OCI-LY10; Homo sapiens, OCI-Ly10, 72 h, read-out: IC50 Romidespin): 9.00
increase of RbAp 46/48 (RBBP4) estimated by spectral counts (RbAp 46/48 (RBBP4)): 2 fold
pIC50 (MT-2; Homo sapiens, MT2, 72 h, read-out: IC50 Romidespin): 8.57
pIC50 (Z-138; Homo sapiens, Z-138, 72 h, read-out: IC50 Romidespin): 8.96
pIC50 (OCI-LY1; Homo sapiens, OCI-Ly1, 72 h, read-out: IC50 Romidespin): 8.60
pIC50 (Riva; [6]): 8.82
pIC50 (SU-DHL-10; Homo sapiens, SU-DHL10, 72 h, read-out: IC50 Romidespin, SU-DHL-10, GC-DLBCL, EP300 mis mut/CREBBP trunc mut, 72-hour exposure): 8.59
pIC50 (SU-DHL-10; read-out: IC50 Romidespin, SU-DHL-10, GC-DLBCL, EP300 mis mut/CREBBP trunc mut, 72-hour exposure): 8.68
pIC50 (SU-DHL-2; Homo sapiens, SU-DHL-2, 72 h, read-out: IC50 Romidespin): 8.89
pIC50 (Farage; [6]): 8.77
pIC50 (HH; [5]): 8.96
pIC50 (MT-1; [6]): 8.55
pIC50 (P12; P12, 72 h, read-out: IC50 Romidespin): 8.37
pIC50 (Pfeiffer; [5]): 8.22
pIC50 (SU-DHL-6; Homo sapiens, SU-DHL-6, 72 h, read-out: IC50 Romidespin): 8.70
pIC50 (HBL-1; HBL1, 72 h, read-out: IC50 Romidespin): 9.00
pIC50 (TLOM-1; [6]): 8.37
Cmax (in vivo): 25.1 ng/mL
intratumor concentration [2]: below the level of detection
pIC50 (OCI-LY7; Homo sapiens, OCI-Ly7, 72 h, read-out: IC50 Romidespin): 8.82

SMILES: CCN(c1cc(-c2ccc(CN3CCOCC3)cc2)cc(C(=O)NCc2c(C)cc(C)[nH]c2=O)c1C)C1CCOCC1 [tazemetostat]
tolerability ([3]; preliminary results): well tolerated
treatment related emergent adverse events: anemia [3]: 10%
treatment related emergent adverse events: nausea [3]: 14%
treatment related emergent adverse events: thrombocytopenia [3]: 13%
